# Reference: patent US12240813B2, “Deuterated tryptamine derivatives and methods of use” (priority 2020, dated 2025)
# Legend:
# rat liver microsomes = test: Metabolic stability in rat liver microsomes (RLM); details: RLM; for RLM, % (half-life as % vs. the related nondeuterated compound): values in square brackets are within 10% difference (assay's accuracy), no deuteration effect; for % Remaining of Initial, 0 min / % Remaining of Initial, 5 min / % Remaining of Initial, 10 min / % Remaining of Initial, 20 min / % Remaining of Initial, 30 min / % Remaining of Initial, 60 min / % Remaining of Initial, 120 min: Table 2, four test articles; for RLM (metabolized or not): last assay time point 120 min
# hrMAO-A = biological target: T1, hrMAO-A (Homo sapiens, UniProt P21397); test: Metabolic stability in the presence of hrMAO-A; format: in vitro ADME; details: for MAO, % (half-life as % vs. the related nondeuterated compound) / MAO (metabolized or not): MAO-A; for MAO, % (half-life as % vs. the related nondeuterated compound): values in square brackets are within 10% difference (assay's accuracy), no deuteration effect; for % Remaining of Initial, 0 min / % Remaining of Initial, 5 min / % Remaining of Initial, 10 min / % Remaining of Initial, 20 min / % Remaining of Initial, 30 min / % Remaining of Initial, 60 min / % Remaining of Initial, 120 min / CLint / Half-life: hrMAO-A; for % Remaining of Initial, 0 min / % Remaining of Initial, 5 min / % Remaining of Initial, 10 min / % Remaining of Initial, 20 min / % Remaining of Initial, 30 min / % Remaining of Initial, 60 min / % Remaining of Initial, 120 min / Half-life: Table 3, four test articles; for CLint: Table 3; for MAO (metabolized or not): last assay time point 120 min
# T1 construct: purchased XenoTech Lot #8213001
# T1 sequence (P21397 1-527): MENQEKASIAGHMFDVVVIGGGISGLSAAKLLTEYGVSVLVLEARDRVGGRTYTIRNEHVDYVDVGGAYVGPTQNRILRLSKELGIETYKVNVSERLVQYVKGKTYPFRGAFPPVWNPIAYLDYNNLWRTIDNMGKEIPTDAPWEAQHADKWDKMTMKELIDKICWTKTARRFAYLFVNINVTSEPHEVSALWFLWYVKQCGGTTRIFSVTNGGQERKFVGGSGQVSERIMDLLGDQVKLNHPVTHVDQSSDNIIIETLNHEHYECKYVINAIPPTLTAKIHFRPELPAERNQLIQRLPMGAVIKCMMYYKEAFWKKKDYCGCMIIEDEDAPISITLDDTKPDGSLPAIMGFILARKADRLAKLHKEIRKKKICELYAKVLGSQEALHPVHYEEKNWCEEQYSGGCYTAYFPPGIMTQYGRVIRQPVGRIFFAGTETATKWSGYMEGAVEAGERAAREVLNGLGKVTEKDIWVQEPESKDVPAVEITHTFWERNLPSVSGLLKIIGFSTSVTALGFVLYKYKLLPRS
# Method: The reaction mixture was prepared as described below. The co-dosed TAs were added into the reaction mixture at a final concentration of 1 microM each. The positive control, kynuramine (25 microM), was run simultaneously with the TAs in a separate reaction. The reaction mixture (without TAs or kynuramine) was equilibrated in a shaking water bath at 37° C. for 5 minutes. The reaction was initiated by the addition of the TAs or kynuramine, and the mixture was incubated in a shaking water bath at 37° C. Aliquots (100 microL) of the TA reaction mixture were withdrawn at 0, 5, 10, 20, 30, 60, and 120 minutes. Aliquots (100 microL) of the positive control reaction mixture were withdrawn at 0 and 30 minutes. TA and kynuramine samples were immediately combined with 100 microL of ice-cold 100% MeCN containing 0.1% formic acid and IS to terminate the reaction. The samples were then mixed and centrifuged to precipitate proteins. All TA samples were assayed by LC-HRAMS. The PARR (analyte to IS) at each time point was compared to the PARR at time 0 to determine the percent remaining at each time point. Reaction composition: hrMAO 0.02 mg/mL; Potassium Phosphate, pH 7.4 100 mM; Magnesium Chloride 5 mM; Test Articles (each) 1 microM.
smiles,measurement,setting,value
[2H]C([2H])([2H])Oc1ccc2[nH]cc(CC([2H])([2H])N(C([2H])([2H])[2H])C([2H])([2H])[2H])c2c1,"RLM, % (half-life as % vs. the related nondeuterated compound)",rat liver microsomes,288%
same,"MAO, % (half-life as % vs. the related nondeuterated compound)",hrMAO-A,366%
[2H]C([2H])(c1c[nH]c2cccc(OC)c12)C([2H])([2H])N(C)CC,"RLM, % (half-life as % vs. the related nondeuterated compound)",rat liver microsomes,161%
same,"MAO, % (half-life as % vs. the related nondeuterated compound)",hrMAO-A,291%
[2H]C([2H])(c1c[nH]c2ccccc12)C([2H])([2H])N(C)C [DMT-d4],"% Remaining of Initial, 0 min",rat liver microsomes,100%
same,"% Remaining of Initial, 5 min",rat liver microsomes,70.7%
same,"% Remaining of Initial, 10 min",rat liver microsomes,59.6%
same,"% Remaining of Initial, 20 min",rat liver microsomes,51.8%
same,"% Remaining of Initial, 30 min",rat liver microsomes,46.3%
same,"% Remaining of Initial, 60 min",rat liver microsomes,34.2%
same,"% Remaining of Initial, 120 min",rat liver microsomes,23.7%
same,"% Remaining of Initial, 0 min",hrMAO-A,100%
same,"% Remaining of Initial, 5 min",hrMAO-A,106%
same,"% Remaining of Initial, 10 min",hrMAO-A,111%
same,"% Remaining of Initial, 20 min",hrMAO-A,102%
same,"% Remaining of Initial, 30 min",hrMAO-A,98.2%
same,"% Remaining of Initial, 60 min",hrMAO-A,77.4%
same,"% Remaining of Initial, 120 min",hrMAO-A,61.4%
same,CLint,hrMAO-A,0.119 mL/min/mg protein
same,Half-life,hrMAO-A,> 2 h
"COc1ccc2[nH]cc(CCN(C)C)c2c1 [5-MeO-DMT, reference compound]",RLM (metabolized or not),rat liver microsomes,R
same,MAO (metabolized or not),hrMAO-A,R
[2H]C([2H])(Cc1c[nH]c2ccc(O)cc12)N(C)C,"RLM, % (half-life as % vs. the related nondeuterated compound)",rat liver microsomes,133%
same,"MAO, % (half-life as % vs. the related nondeuterated compound)",hrMAO-A,415%
[2H]C([2H])(Cc1c[nH]c2cccc(OC)c12)N(C)C,"RLM, % (half-life as % vs. the related nondeuterated compound)",rat liver microsomes,185%
same,"MAO, % (half-life as % vs. the related nondeuterated compound)",hrMAO-A,335%
[2H]C([2H])(c1c[nH]c2ccc(O)cc12)C([2H])([2H])N(C)C,"RLM, % (half-life as % vs. the related nondeuterated compound)",rat liver microsomes,136%
same,"MAO, % (half-life as % vs. the related nondeuterated compound)",hrMAO-A,418%
[2H]C([2H])([2H])NC([2H])([2H])Cc1c[nH]c2ccccc12,"RLM, % (half-life as % vs. the related nondeuterated compound)",rat liver microsomes,207%
same,"MAO, % (half-life as % vs. the related nondeuterated compound)",hrMAO-A,744%
[2H]C([2H])([2H])C([2H])([2H])NC([2H])([2H])C([2H])([2H])c1c[nH]c2ccccc12,"RLM, % (half-life as % vs. the related nondeuterated compound)",rat liver microsomes,159%
same,"MAO, % (half-life as % vs. the related nondeuterated compound)",hrMAO-A,166%
[2H]C([2H])(Cc1c[nH]c2ccc(O)cc12)N(C)CC,"RLM, % (half-life as % vs. the related nondeuterated compound)",rat liver microsomes,132%
same,"MAO, % (half-life as % vs. the related nondeuterated compound)",hrMAO-A,173%
[2H]C([2H])(Cc1c[nH]c2ccccc12)N(C)C [DMT-d2],"% Remaining of Initial, 0 min",rat liver microsomes,100%
same,"% Remaining of Initial, 5 min",rat liver microsomes,67.5%
same,"% Remaining of Initial, 10 min",rat liver microsomes,56.6%
same,"% Remaining of Initial, 20 min",rat liver microsomes,48.8%
same,"% Remaining of Initial, 30 min",rat liver microsomes,43.3%
same,"% Remaining of Initial, 60 min",rat liver microsomes,32.0%
same,"% Remaining of Initial, 120 min",rat liver microsomes,21.5%
same,"% Remaining of Initial, 0 min",hrMAO-A,100%
same,"% Remaining of Initial, 5 min",hrMAO-A,106%
same,"% Remaining of Initial, 10 min",hrMAO-A,111%
same,"% Remaining of Initial, 20 min",hrMAO-A,101%
same,"% Remaining of Initial, 30 min",hrMAO-A,97.5%
same,"% Remaining of Initial, 60 min",hrMAO-A,76.0%
same,"% Remaining of Initial, 120 min",hrMAO-A,59.1%
same,CLint,hrMAO-A,0.126 mL/min/mg protein
same,Half-life,hrMAO-A,> 2 h
[2H]C([2H])(Cc1c[nH]c2ccccc12)NCC,"RLM, % (half-life as % vs. the related nondeuterated compound)",rat liver microsomes,138%
same,"MAO, % (half-life as % vs. the related nondeuterated compound)",hrMAO-A,145%
CNCCc1c[nH]c2cccc(O)c12 [reference compound],RLM (metabolized or not),rat liver microsomes,R
same,MAO (metabolized or not),hrMAO-A,R
"CN(C)CCc1c[nH]c2ccccc12 [DMT, reference compound]","% Remaining of Initial, 0 min",rat liver microsomes,100%
same,"% Remaining of Initial, 5 min",rat liver microsomes,65.2%
same,"% Remaining of Initial, 10 min",rat liver microsomes,52.2%
same,"% Remaining of Initial, 20 min",rat liver microsomes,41.0%
same,"% Remaining of Initial, 30 min",rat liver microsomes,33.2%
same,"% Remaining of Initial, 60 min",rat liver microsomes,17.4%
same,"% Remaining of Initial, 120 min",rat liver microsomes,4.07%
same,"% Remaining of Initial, 0 min",hrMAO-A,100%
same,"% Remaining of Initial, 5 min",hrMAO-A,96.3%
same,"% Remaining of Initial, 10 min",hrMAO-A,90.7%
same,"% Remaining of Initial, 20 min",hrMAO-A,64.8%
same,"% Remaining of Initial, 30 min",hrMAO-A,49.4%
same,"% Remaining of Initial, 60 min",hrMAO-A,18.1%
same,"% Remaining of Initial, 120 min",hrMAO-A,3.95%
same,CLint,hrMAO-A,0.638 mL/min/mg protein
same,Half-life,hrMAO-A,0.453 h
